Columns and labels:
Trypanosoma cruzi [1] = test: Trypanocidal activity against Trypanosoma cruzi Tulahuen 2 epimastigotes at 25 uM after 5 days; type: functional; conditions: Tulahuen 2, 120 h
Vero = test: Cytotoxicity against African green monkey Vero cells after 48 hrs by MTT assay; type: cell-based; conditions: Chlorocebus sabaeus
Trypanosoma cruzi [2] = test: Trypanocidal activity against Trypanosoma cruzi Tulahuen 2 epimastigotes after 5 days; type: functional, organism-based; conditions: Tulahuen 2, 120 h
[3] = Selectivity index, ratio of IC50 for African green monkey Vero cells to IC50 for Trypanosoma cruzi Tulahuen 2 epimastigotes; type: toxicity, cell-based; conditions: read-out: Ratio IC50

SMILES	inhibition at 25 µM (Trypanosoma cruzi [1]) [%]	IC50 (Vero) [µM]	IC50 (Trypanosoma cruzi [2]) [µM]	selectivity ratio [3]
O=C(c1ccc(F)cc1)c1c(C(F)(F)F)[n+]([O-])c2cc(F)c(F)cc2[n+]1[O-]	91.8	3	0.6	5
O=C(c1ccc(F)cc1)c1c(C(F)(F)F)[n+]([O-])c2ccc(Cl)cc2[n+]1[O-]	86.1		1	
CC(C)C(=O)c1c(C(F)(F)F)[n+]([O-])c2cc(N(C)C)c(N3CCOCC3)cc2[n+]1[O-]	86		10.7	
O=C(c1ccc(F)cc1)c1c(C(F)(F)F)[n+]([O-])c2ccc(F)cc2[n+]1[O-]	95.6	4.4	1.1	4
O=C(c1ccco1)c1c(C(F)(F)F)nc2cc(Cl)c(N3CCOCC3)cc2[n+]1[O-]	91.7	455	12.1	37.6
CC(C)C(=O)c1c(C(F)(F)F)[n+]([O-])c2cc(N3CCOCC3)c(N3CCOCC3)cc2[n+]1[O-]	66.3		17	
O=C(c1ccc(F)cc1)c1c(C(F)(F)F)[n+]([O-])c2cc(Cl)c(Cl)cc2[n+]1[O-]	89.3		1.3	
CC(=O)c1c(C(F)(F)F)[n+]([O-])c2cc(F)c(N3CCSCC3)cc2[n+]1[O-]	83.4		2	
CC(=O)c1c(C(F)(F)F)[n+]([O-])c2cc(F)c(N3CCC(N4CCOCC4)CC3)cc2[n+]1[O-]	93.4		5.3	
CC(=O)c1c(C(F)(F)F)[n+]([O-])c2cc(F)c(N3CCOCC3)cc2[n+]1[O-]	100		6.4	
CC(=O)c1c(C(F)(F)F)[n+]([O-])c2cc(N3CCCCC3)c(N3CCCCC3)cc2[n+]1[O-]	100	4.5	2.3	1.7
CCOC(=O)c1c(C(F)(F)F)nc2cc(Cl)c(N3CCOCC3)cc2[n+]1[O-]	54.6		> 25	
CC(=O)c1c(C(F)(F)F)[n+]([O-])c2cc(N3CCC(O)CC3)c(N3CCC(O)CC3)cc2[n+]1[O-]	15.7		> 25	
CC(=O)c1c(C(F)(F)F)[n+]([O-])c2cc(F)c(N3CCCCC3)cc2[n+]1[O-]	96.9	15.2	2.6	5.8
CC(=O)c1c(C(F)(F)F)[n+]([O-])c2cc(F)c(N3CCC(O)CC3)cc2[n+]1[O-]	84.9		6.3	
O=C(Cn1ccnc1[N+](=O)[O-])NCc1ccccc1 [BENZNIDAZOLE]	100		8	
CC1CS(=O)(=O)CCN1/N=C/c1ccc([N+](=O)[O-])o1 (stereo not drawn) [NIFURTIMOX]	100			
